Source: US8524899B2, “Alternative heterocycles for DNA recognition” (California Institute of Technology, priority 2003, dated 2013)

Experiments:
Type in all cases: binding
[1] = tested on: EcoRI/PvuII restriction fragment of plasmid pPWF2 (5′-TGRACA-3′); experiment: Quantitative DNase I footprint titration, R•S position, plasmid pPWF2
Source text: (§1) FIG. 9 illustrates the equilibrium association constants Ka[M^−1] and specificities for polyamide oligomers D-F, R, S, and V on plasmids pPWF2 and pCAB1 (R•S position).
(§2) When replacing PyPy, PyIm, and PyHp dimers with BiPy (as in oligomer D), BiIm (as in oligomer E), and BiHp constructs (as in oligomer F), respectively, the question arises whether a) the benzimidazole ring is capable of cooperating with the imidazole ring on the opposite strand of the hairpin polyamide to specifically recognize a C•G base pair according to the binding model and the general pairing rules, and b) whether the steric and electronic peculiarities of the benzimidazole ring disturb the binding ability of the adjacent heterocycle. In order to address this question for the given polyamide design, the recognition behavior of the benzimidazole-containing polyamides was probed in two of the six base pair positions R•S and X•Y of the recognition sequence (5′-TGRACA-3′ and 5′-TGGXCA-3′ for oligomers D and F; 5′-TGRCAA-3′ and 5′-TGGXAA-3′ for oligomer E; FIG. 6) and compared with the DNA-binding ability of the related all five-membered oligomers R, S, and V at the same recognition sequences.
(§3) Evaluation of the DNA recognition properties of the new ligands oligomers D, E, and F at the imidazole/benzimidazole position (referred to as R•S position) should reveal the sequence preference of the benzimidazole ring. The binding properties at the neighboring ring position (referred to as X•Y position) were expected to disclose whether the recognition capabilities of the adjacent internal five-membered ring are disturbed by the benzimidazole moiety. To examine the consequences of the ring replacement for DNA binding in terms of affinity and specificity, the benzimidazole-containing hairpin polyamides oligomers D, E, and F were evaluated by quantitative DNase I footprint titrations and the results compared to those from related oligomers R, S, and V, which were investigated under identical conditions. Quantitative DNase I footprint titration experiments (10 mm Tris-HCl, 10 mm KCl, 10 mm MgCl2, 5 mm CaCl2, pH 7.0, 22° C., equilibration time: 12 h) were performed on ^32P-3′-labeled EcoRI/PvuII restriction fragments of plasmids pPWF2 and pCAB1 (to probe the R•S position, FIG. 7); and pAU2 and pCAB2 (to probe the X•Y position, FIG. 8). Equilibrium association constants (Ka) for the polyamide oligomers at the binding sites of interest were determined as described above in Example 3.

[2] = tested on: EcoRI/PvuII restriction fragment of plasmid pAU2 (5′-TGGXCA-3′); experiment: Quantitative DNase I footprint titration, X•Y position, plasmid pAU2; settings: match and mismatch sites
Source text: FIG. 10 illustrates the equilibrium association constants Ka[M^−1] and specificities for polyamide oligomers D-F, R, S, and V on plasmids pAU2 and pCAB2 (X•Y position). […]
as §3, with “The binding properties at the neighboring ring position (referred to as X•Y position) were expected to disclose whether the recognition capabilities of the adjacent internal five-membered ring are disturbed by the benzimidazole moiety.” left out

[3] = tested on: 5′-TGGXCA-3′ (X=A, T, G, C); experiment: DNase I footprint titration, single Hz/Py, Py/Hz, Hz/Bi, Bi/Hz pair position; settings: for preference for A•T over T•A: Py/Hz (J), Bi/Hz (L) pair; for preference for T•A over A•T: Hz/Py (G), Hz/Bi (I) pair
Experimental: FIG. 15 is a table showing the association equilibrium constant Ka[M^−1] for polyamide oligomers G and J. The reported association constants are the average values obtained from three DNase I footprint titration experiments, with the standard deviation given in parenthesis. Assays were carried out at 22° C. at pH 7.0 in the presence of 10 mM Tris-HCl, 10 mM KCl, 10 mM MgCl2, and 5 mM CaCl2 at pH 7.0.
FIG. 19 is a a table showing the association equilibrium constant Ka[M^−1] for polyamide oligomers I and L. The reported association constants are the average values obtained from three DNase I footprint titration experiments, with the standard deviation given in parenthesis. Assays were carried out at 22° C. at pH 7.0 in the presence of 10 mM Tris-HCl, 10 mM KCl, 10 mM MgCl2, and 5 mM CaCl2 at pH 7.0.
For polyamides Im-Im-Hz-Py-γ-Im-Py-Py-Py-β-Dp (oligomer G) and Im-Im-Py-Py-γ-Im-Hz-Py-Py-β-Dp (oligomer J), the DNA-sequence specificity at a single ring-pairing position (bolded in the sequences listed above) was determined by varying a single DNA base pair within the parent-sequence context, 5′-TGGXCA-3′, to all four Watson-Crick base pairs (X=A, T, G, C) and comparing the relative affinities of the resulting complexes (FIG. 14). The variable base-pair position was installed opposite the novel Hz/Py and Py/Hz pairs, designed to target T•A and A•T respectively. Equilibrium association constants (Ka) for polyamide oligomers containing Py/Py, Hp/Py and Py/Hp pairs have been reported and are included for comparison with values presented here (FIG. 15).
The variable base-pair position was installed opposite the novel Hz/Bi and Bi/Hz pairs, designed to target T•A and A•T respectively.
Footprinting Experiments.—Plasmids pDHN1 and pDEH10 were constructed and 5′-radiolabeled as previously described. (Nguyen, D. H. et al., Bioorg. Med. Chem., 9: 7-17, 2001; Melander, C. et al., Chem. Eur. J., 24: 4487-4497, 2000.) DNase I footprint titrations were performed according to standard protocols. (Trauger, J. W. et al., Methods Enzymol., 340: 450-466, 2001.)

[4] = tested on: 32P-3′-labeled EcoRI/PvuII restriction fragment of plasmid pDR1 (sites 5′-TGTCTA-3′, 5′-TGTTTA-3′, 5′-TGTATA-3′, 5′-TGTGTA-3′); experiment: Quantitative DNase I footprint titration on pDR1 restriction fragment
Experimental: FIG. 4 illustrates the equilibrium association constants Ka[M^−1] for Polyamide Oligomers A-C, N, Q, and P. The reported association constants are the average values obtained from three DNase I footprint titration experiments, with the standard deviation for each data set indicated in the experiments. Assays were carried out at 22° C. at pH 7.0 in the presence of 10 mM Tris-HCl, 10 mM KCl, 10 mM MgCl2, and 5 mM CaCl2 with an equilibration time of 12 h. Specificities are give in brackets under the Ka values and calculated as Ka (match)/Ka (mismatch).
To examine whether an imidazo[4,5-b]pyridine unit Ip can replace a five-membered imidazole ring Im within an eight-ring hairpin polyamide regarding DNA binding affinity and specificity, polyamide oligomer A and its related all five-membered ring hairpin oligomer N were evaluated by DNase I footprint titrations under identical conditions. Quantitative DNase I footprint titration experiments (10 mM Tris-HCl, 10 mM KCl, 10 mM MgCl2, 5 mM CaCl2, pH 7.0, 22° C., equilibration time: 12 h) were performed on a ^32P-3′-labeled EcoRI/PvuII restriction fragment of plasmid pDR1 0 (FIG. 2). This DNA fragment contains four 6-base pair binding sites which differ at one position, 5′-TGTCTA-3′,5′-TGTTTA-3′,5′-TGTATA-3′, and 5′-TGTGTA-3′. The latter one was regarded as the possible match site having a G•C base pair under the Ip/Py or Im/Py pair, respectively.
Construction of plasmid DNA. The plasmid pDR1 was constructed by hybridization of the two oligonucleotides 5′-GATCAGGCTGTC-[…]-GCTGCTGTTTATGGACG-GCTGCTGTATATGGACGG-CTGGGCGA-3′ (SEQ ID NO:1) and 5′-AGCTTCGC-[…]-[…]-3′ (SEQ ID NO:2) followed by ligation into the BamHI/HinDIII restriction fragment of pUC19 using T4 DNA ligase. The resultant plasmid was then used to transform E. coli XL-1 Blue Supercompetent cells. Ampicillin-resistant white colonies were selected from 25 mL Luria-Bertani agar plates containing […] ampicillin, treated with XGAL and IPTG solutions and grown overnight at 37° C. Cells were harvested after overnight growth at 37° C. Large-scale plasmid purification was performed with Qiagen, purification kits. The presence of the desired insert was determined by dideoxy sequencing. DNA concentrations were determined at 260 nm using the relationship 1 OD unit) 50 μg/mL duplex DNA.
Preparation of 3′-End-Labeled DNA Restriction Fragments. The plasmid pDR1 was linearized with EcoRI and PVuII and treated with the Klenow fragment of DNA […], [R-^32P]-dATP, and [R-^32P]-TTP for 3′-end labeling. The labeled 3′-fragment was purified on a 7% nondenaturing polyacrylamide gel (5% cross-linkage) and the desired 284 base pair band isolated after visualization by autoradiography. The DNA was precipitated with 2-propanol, the pellet washed, lyophilized, and resuspended in RNase-free H2O. Chemical sequencing reactions were performed according to published protocols. (Troschütz, R.; Lückel, A. Arch. Pharm., 325, 617-619, 1992.)
DNase I Footprinting. All reactions were carried out in a volume of 400 μL according to published procedures. Quantitation by storage phosphor autoradiography and determination of equilibrium association constants were as previously described. (Trauger, J. W.; Dervan, P. B. Methods Enzymol., 340, 450-466, 2001.)

[5] = tested on: EcoRI/PvuII restriction fragment of plasmid pCAB1 (5′-TGRCAA-3′); experiment: Quantitative DNase I footprint titration, R•S position, plasmid pCAB1
Source text: as §1, §2, §3

[6] = tested on: EcoRI/PvuII restriction fragment of plasmid pCAB2 (5′-TGGXAA-3′); experiment: Quantitative DNase I footprint titration, X•Y position, plasmid pCAB2
Source text: FIG. 10 illustrates the equilibrium association constants Ka[M^−1] and specificities for polyamide oligomers D-F, R, S, and V on plasmids pAU2 and pCAB2 (X•Y position).
When replacing PyPy, PyIm, and PyHp dimers with BiPy (as in oligomer D), BiIm (as in oligomer E), and BiHp constructs (as in oligomer F), respectively, the question arises whether a) the benzimidazole ring is capable of cooperating with the imidazole ring on the opposite strand of the hairpin polyamide to specifically recognize a C•G base pair according to the binding model and the general pairing rules, and b) whether the steric and electronic peculiarities of the benzimidazole ring disturb the binding ability of the adjacent heterocycle. […]
as §3, with “The binding properties at the neighboring ring position (referred to as X•Y position) were expected to disclose whether the recognition capabilities of the adjacent internal five-membered ring are disturbed by the benzimidazole moiety.” left out

Compound: CNC(=O)c1cc(NC(=O)c2ccc3nc(-c4cc(NC(=O)c5nc(NC(=O)[C@H](N)CCNC(=O)c6cc(NC(=O)c7cc(NC(=O)c8nc(NC(=O)c9nccn9C)cn8C)cn7C)cn6C)cn5C)cn4C)[nH]c3c2)cn1C [D]
- match site Ka, R•S position ([1]; 5′-TGRACA-3′ match site, pH 7.0, 22° C., 12 h): 4.9e+10 M⁻¹
- match site affinity compared with related all five-membered oligomer, R•S position ([1]; D vs R, F vs V): comparable
- single base pair mismatch specificities compared with related oligomer, R•S position ([1]; D vs R, F vs V): lower by roughly one order of magnitude
- binding affinities and specificities compared with related oligomers R, V, X•Y position [2]: same order of magnitude

Compound: CN(C)CCCNC(=O)CCNC(=O)c1cc(NC(=O)c2cc(NC(=O)c3ccc4nc(-c5nc(NC(=O)CCCNC(=O)c6cc(NC(=O)c7ccc8nc(-c9nc(NC(=O)c%10nccn%10C)cn9C)[nH]c8c7)cn6C)cn5C)[nH]c4c3O)cn2C)cn1C [L]
- selectivity for A,T over G,C [3]: 4.5 fold
- Ka (affinity) ([3]; 5′-TGGXCA-3′, 22° C., pH 7.0): high affinity
- preference for A•T over T•A [3]: 2.5 fold

Compound: CN(C)CCCNC(=O)CCNC(=O)c1cc(NC(=O)c2cc(NC(=O)c3ccc4nc(-c5nc(NC(=O)CCCNC(=O)c6cc(NC(=O)c7cc(NC(=O)c8nc(NC(=O)c9nccn9C)cn8C)cn7C)cn6C)cn5C)[nH]c4c3O)cn2C)cn1C [J]
- selectivity for A,T over G,C [3]: more than 30 fold
- preference for A•T over T•A [3]: more than 4 fold

Compound: CN(C)CCCNC(=O)CCNC(=O)c1cc(NC(=O)c2cc(NC(=O)c3ccc4nc(-c5nc(NC(=O)CCCNC(=O)c6cc(NC(=O)c7ccc8nc(-c9nc(NC(=O)c%10nccn%10C)cn9C)[nH]c8c7O)cn6C)cn5C)[nH]c4c3)cn2C)cn1C [I]
- selectivity for A,T over G,C [3]: 13 fold
- preference for T•A over A•T [3]: 2.5 fold

Compound: CN(C)CCCNC(=O)CCNC(=O)c1cc(NC(=O)c2cc(NC(=O)c3cc(NC(=O)c4nc(NC(=O)CCCNC(=O)c5cc(NC(=O)c6ccc7nc(-c8nc(NC(=O)c9nccn9C)cn8C)[nH]c7c6O)cn5C)cn4C)cn3C)cn2C)cn1C [G]
- selectivity for A,T over G,C [3]: more than 50 fold
- preference for T•A over A•T [3]: 10 fold

Compound: CNC(=O)c1cc(NC(=O)c2cc(NC(=O)c3cc(NC(=O)c4cc(NC(=O)[C@H](N)CCNC(=O)c5cc(NC(=O)c6ccc7nc(-c8cc(NC(=O)c9nccn9C)cn8C)[nH]c7n6)cn5C)cn4C)cn3C)cn2C)cn1C [A]
- specificity of match site versus A•T and T•A sites ([4]; G•C match vs A•T and T•A sites): similar
- preference for match site 5′-TGTGTA-3′ versus the C•G site ([4]; G•C match vs C•G site): slight decrease
- higher affinity than related all five-membered ring oligomer ([4]; site 5′-TGTGTA-3′): 5 fold
- equilibrium association constant Ka ([4]; site 5′-TGTGTA-3′ (G•C), pH 7.0, 22° C., equilibration 12 h): 1.2e+10 M⁻¹

Compound: CNC(=O)c1cc(NC(=O)c2cc(NC(=O)c3cc(NC(=O)c4cc(NC(=O)[C@H](N)CCNC(=O)c5cc(NC(=O)c6ccc7nc(-c8cc(NC(=O)c9nccn9C)cn8C)[nH]c7c6)cn5C)cn4C)cn3C)cn2C)cn1C [C]
- binding site preference, affinity and specificity compared with related all five-membered ring oligomer ([4]; B vs Q, C vs P): same binding site preference

Compound: CNC(=O)c1cc(NC(=O)c2ccc3nc(-c4nc(NC(=O)c5cc(NC(=O)[C@H](N)CCNC(=O)c6cc(NC(=O)c7cc(NC(=O)c8nc(NC(=O)c9nccn9C)cn8C)cn7C)cn6C)cn5C)cn4C)[nH]c3c2)cn1C [E]
- match site Ka, R•S position ([5]; 5′-TGRCAA-3′ match site, pH 7.0, 22° C., 12 h): 3.1e+10 M⁻¹
- match site affinity compared with related all five-membered oligomer, R•S position ([5]; E vs S): six to seven-fold higher
- match site/mismatch site discrimination compared with related oligomer, R•S position ([5]; R=A): comparable
- match site/mismatch site discrimination compared with related oligomer, R•S position ([5]; R=T or C): at least ten-fold lower
- match site Ka, X•Y position ([6]; 5′-TGGXAA-3′ match site, pH 7.0, 22° C., 12 h): 1.9e+10 M⁻¹
- match site affinity compared with related oligomer S, X•Y position ([6]; E vs S): six-fold higher
- single base pair mismatch specificities compared with related oligomer S, X•Y position ([6]; E vs S): mildly diminished
